Test results published in ChEMBL document CHEMBL3885881, “DrugMatrix”.

Organism: Rattus norvegicus
Test: DrugMatrix - Regimen: Daily Repeat
Assay type: toxicity, organism-based, Sprague-Dawley
Set-up: regimen Daily Repeat, gender Male, age 6-8 weeks
Conditions: in vivo, po, route oral GAVAGE, […]; for ABSOLUTE BASOPHIL / ABSOLUTE EOSINOPHIL / ABSOLUTE LYMPHOCYTE / ABSOLUTE MONOCYTE / ABSOLUTE SEGMENTED NEUTROPHIL / BASOPHIL / EOSINOPHIL / ERYTHROCYTE COUNT / HEMATOCRIT / HEMOGLOBIN / LEUKOCYTE COUNT / LYMPHOCYTE / MEAN CORPUSCULAR HEMOGLOBIN / MEAN CORPUSCULAR HEMOGLOBIN CONCENTRATION / MEAN CORPUSCULAR VOLUME / MONOCYTE / NEUTROPHIL / NUCLEATED RED BLOOD CELLS / PLATELET COUNT: tissue Blood
[1] = 0 mg/kg, 72 h, dose level Control, time 3 day
[2] = 0 mg/kg, 72 h, tissue Plasma, dose level Control, time 3 day
[3] = 0 mg/kg, 120 h, dose level Control, time 5 day
[4] = 0 mg/kg, 120 h, tissue Plasma, dose level Control, time 5 day
[5] = 0.3 mg/kg, 72 h, dose level Low, time 3 day
[6] = 0.3 mg/kg, 72 h, tissue Plasma, dose level Low, time 3 day

C[C@]12CC[C@@H]3c4ccc(O)cc4CC[C@H]3[C@@H]1CC[C@@H]2O [ESTRADIOL]
ABSOLUTE BASOPHIL [1]: 0 CELLS/uL
ABSOLUTE EOSINOPHIL [1]: 41.83 CELLS/uL
ABSOLUTE LYMPHOCYTE [1]: 8545.5 CELLS/uL
ABSOLUTE MONOCYTE [1]: 240 CELLS/uL
ABSOLUTE SEGMENTED NEUTROPHIL [1]: 906 CELLS/uL
BASOPHIL [1]: 0%
EOSINOPHIL [1]: 0.33%
ERYTHROCYTE COUNT [1]: 5.6 x10E6/uL
HEMATOCRIT [1]: 35.4%
HEMOGLOBIN [1]: 13.42 G/DL
LEUKOCYTE COUNT [1]: 9.73 x10E3/uL
LYMPHOCYTE [1]: 87.83%
MEAN CORPUSCULAR HEMOGLOBIN [1]: 23.98 pg
MEAN CORPUSCULAR HEMOGLOBIN CONCENTRATION [1]: 37.92 G/DL
MEAN CORPUSCULAR VOLUME [1]: 63.3 fL
MONOCYTE [1]: 2.5%
NEUTROPHIL [1]: 9.33%
NUCLEATED RED BLOOD CELLS [1]: 0 /100WBC
PLATELET COUNT [1]: 1032 x10E3/uL
ALANINE AMINOTRANSFERASE [2]: 72.83 u/L
ALBUMIN [2]: 4 G/DL
ALKALINE PHOSPHATASE [2]: 322.83 u/L
ASPARTATE AMINOTRANSFERASE [2]: 102.67 u/L
BLOOD UREA NITROGEN [2]: 12 mg/dL
CARBON DIOXIDE [2]: 34.33 mmol/L
CHLORIDE [2]: 97.67 MEQ/L
CHOLESTEROL [2]: 82.5 mg/dL
CREATINE PHOSPHOKINASE [2]: 410.33 u/L
CREATININE [2]: 0.18 mg/dL
GLUCOSE [2]: 164.5 mg/dL
LACTATE DEHYDROGENASE [2]: 119.5 u/L
LIPASE [2]: 11.83 u/L
PHOSPHORUS [2]: 9.52 mg/dL
POTASSIUM [2]: 5.56 MEQ/L
SODIUM [2]: 142.48 MEQ/L
TOTAL BILIRUBIN [2]: 0.18 mg/dL
TOTAL PROTEIN [2]: 5.77 G/DL
URIC ACID [2]: 0.48 mg/dL
ABSOLUTE BASOPHIL [3]: 0 CELLS/uL
ABSOLUTE EOSINOPHIL [3]: 0 CELLS/uL
ABSOLUTE LYMPHOCYTE [3]: 9065 CELLS/uL
ABSOLUTE MONOCYTE [3]: 341.33 CELLS/uL
ABSOLUTE SEGMENTED NEUTROPHIL [3]: 527 CELLS/uL
BASOPHIL [3]: 0%
EOSINOPHIL [3]: 0%
ERYTHROCYTE COUNT [3]: 5.25 x10E6/uL
HEMATOCRIT [3]: 34.08%
HEMOGLOBIN [3]: 13.5 G/DL
LEUKOCYTE COUNT [3]: 9.93 x10E3/uL
LYMPHOCYTE [3]: 91.17%
MEAN CORPUSCULAR HEMOGLOBIN [3]: 25.7 pg
MEAN CORPUSCULAR HEMOGLOBIN CONCENTRATION [3]: 39.62 G/DL
MEAN CORPUSCULAR VOLUME [3]: 64.93 fL
MONOCYTE [3]: 3.33%
NEUTROPHIL [3]: 5.5%
NUCLEATED RED BLOOD CELLS [3]: 0 /100WBC
PLATELET COUNT [3]: 1077.5 x10E3/uL
ALANINE AMINOTRANSFERASE [4]: 57.83 u/L
ALKALINE PHOSPHATASE [4]: 319.17 u/L
ASPARTATE AMINOTRANSFERASE [4]: 83.33 u/L
BLOOD UREA NITROGEN [4]: 13.67 mg/dL
CARBON DIOXIDE [4]: 30.83 mmol/L
CHLORIDE [4]: 98.33 MEQ/L
CHOLESTEROL [4]: 64.83 mg/dL
CREATINE PHOSPHOKINASE [4]: 263.67 u/L
CREATININE [4]: 0.2 mg/dL
GLUCOSE [4]: 182.83 mg/dL
LACTATE DEHYDROGENASE [4]: 124 u/L
LIPASE [4]: 10.5 u/L
PHOSPHORUS [4]: 10 mg/dL
POTASSIUM [4]: 5.78 MEQ/L
SODIUM [4]: 142.48 MEQ/L
TOTAL BILIRUBIN [4]: 0.2 mg/dL
TOTAL PROTEIN [4]: 6 G/DL
URIC ACID [4]: 0.7 mg/dL
ABSOLUTE BASOPHIL [5]: 0 CELLS/uL
ABSOLUTE EOSINOPHIL [5]: 0 CELLS/uL
ABSOLUTE LYMPHOCYTE [5]: 8342 CELLS/uL
ABSOLUTE MONOCYTE [5]: 154.33 CELLS/uL
ABSOLUTE SEGMENTED NEUTROPHIL [5]: 637 CELLS/uL
BASOPHIL [5]: 0%
EOSINOPHIL [5]: 0%
ERYTHROCYTE COUNT [5]: 5.44 x10E6/uL
HEMATOCRIT [5]: 33.83%
HEMOGLOBIN [5]: 13.07 G/DL
LEUKOCYTE COUNT [5]: 9.13 x10E3/uL
LYMPHOCYTE [5]: 91.67%
MEAN CORPUSCULAR HEMOGLOBIN [5]: 24.07 pg
MEAN CORPUSCULAR HEMOGLOBIN CONCENTRATION [5]: 38.63 G/DL
MEAN CORPUSCULAR VOLUME [5]: 62.23 fL
MONOCYTE [5]: 1.67%
NEUTROPHIL [5]: 6.67%
NUCLEATED RED BLOOD CELLS [5]: 0 /100WBC
PLATELET COUNT [5]: 824 x10E3/uL
ALANINE AMINOTRANSFERASE [6]: 57.33 u/L
ALKALINE PHOSPHATASE [6]: 430 u/L
ASPARTATE AMINOTRANSFERASE [6]: 82.67 u/L
BLOOD UREA NITROGEN [6]: 13.67 mg/dL
CARBON DIOXIDE [6]: 34 mmol/L
CHLORIDE [6]: 97.67 MEQ/L
CHOLESTEROL [6]: 68 mg/dL
CREATINE PHOSPHOKINASE [6]: 290.33 u/L
CREATININE [6]: 0.16 mg/dL
GLUCOSE [6]: 175 mg/dL
LACTATE DEHYDROGENASE [6]: 124 u/L
LIPASE [6]: 11 u/L
PHOSPHORUS [6]: 9.93 mg/dL
POTASSIUM [6]: 5.76 MEQ/L
SODIUM [6]: 142.13 MEQ/L
TOTAL BILIRUBIN [6]: 0.23 mg/dL
URIC ACID [6]: 0.37 mg/dL
